# What was measured:
# in vivo = details: horse, concentration of C21-C21-desisobutyrylciclesonide in plasma
# RAO horses [1] = experiment: Budesonide study: moldy hay challenge, lung function variables and clinical score; assay type: in vivo
# Source text: Nozzle A and a […]® inhaler device not available commercially is used in the study.
# RAO horses [2] = experiment: 1st ciclesonide study: moldy hay challenge, serum cortisol; assay type: in vivo; details: dexamethasone 0.066 mg/kg per os once daily; days 3, 5, 7, 10, 14 and 17; p<0.0001
# RAO horses [3] = experiment: 2nd ciclesonide study: moldy hay challenge, lung function variables and weighted clinical score; assay type: in vivo; details: dexamethasone 0.066 mg/kg per os once daily; after 14 days
# Source text: (§1) The commercially available […]® is used in the study.
# [4] = taken orally; cited from earlier work
# RAO horses [5] = experiment: 2nd ciclesonide study: moldy hay challenge, serum cortisol; assay type: in vivo; details: dexamethasone 0.066 mg/kg per os once daily; days 3, 5, 7, 10, 14 and 17; p<0.0001
# Source text: as §1
# RAO horses [6] = experiment: Segmented neutrophil and lymphocyte counts in the 1st and 2nd ciclesonide studies; assay type: in vivo; details: for lymphocytes count / segmented neutrophil count: after administration of dexamethasone 0.066 mg/kg per os; for Lymphocytes / Segmented neutrophils: dexamethasone 0.066 mg/kg per os once daily 14 days, mean, n=8
# Description: as §1
# The segmented neutrophil counts and the lymphocyte counts are determined in the studies above: ciclesonide treatment versus dexamethasone treatment.
# Concentration of segmented neutrophils and lymphocytes on day (D): D0, D14 and D21 in the treatment groups of dexamethasone and different doses of ciclesonide (n=8) (mean (SEM)
# RAO horses [7] = experiment: 1st ciclesonide study: moldy hay challenge, lung function variables and breathing effort score; assay type: in vivo; details: dexamethasone 0.066 mg/kg per os once daily; after 14 days; p<0.0001
structure (smiles),measurement,setting,value
C[C@]12C=CC(=O)C=C1CC[C@@H]1[C@@H]2[C@@H](O)C[C@@]2(C)[C@H]1C[C@H]1O[C@@H](C3CCCCC3)O[C@]12C(=O)CO [C21-C21-desisobutyrylciclesonide],concentration at 4 h,in vivo,< 0.25 nM
CCCC1O[C@@H]2C[C@H]3[C@@H]4CCC5=CC(=O)C=C[C@]5(C)[C@H]4[C@@H](O)C[C@]3(C)[C@]2(C(=O)CO)O1 (stereo partly drawn) [budesonide],clinical score (breathing effort score) compared to pretreatment values,"RAO horses [1]; all three budesonide doses (450/900/1800 μg/horse twice daily), after 7 and 14 days, p=0.002 to p<0.0001",significantly reduced
same,"all lung function variables (transpulmonary pressure, lung resistance, lung elastance) compared to pretreatment values","RAO horses [1]; budesonide 1800 μg/horse ex RESPIMAT twice daily per inhalation, after 14 days, p≤0.0001",significantly reduced
same,"lung function variables, difference to dexamethasone group","RAO horses [1]; budesonide 1800 μg/horse ex RESPIMAT twice daily, after 7 or 14 days",no significant difference
same,"clinical score, difference to dexamethasone group","RAO horses [1]; budesonide 900 and 1800 μg/horse ex RESPIMAT twice daily, after 7 and 14 days",no significant difference
C[C@@H]1C[C@H]2[C@@H]3CCC4=CC(=O)C=C[C@]4(C)[C@@]3(F)[C@@H](O)C[C@]2(C)[C@@]1(O)C(=O)CO [dexamethasone],serum cortisol levels compared to pretreatment values,RAO horses [2],significantly reduced
same,serum cortisol levels in comparison to any of the ciclesonide treatment groups,RAO horses [2],significantly reduced
same,"all lung function variables (ΔPL, RL, EL) compared to pretreatment values",RAO horses [3],significantly reduced
same,weighted clinical score compared to pretreatment values,RAO horses [3],significantly reduced
same,potency relative to prednisone,[4],7 times
same,potency relative to the naturally occurring hormone cortisol,[4],27 times
same,serum cortisol levels,RAO horses [5],significantly reduced
same,serum cortisol levels in comparison to any of the ciclesonide treatment groups,RAO horses [5],significantly reduced
same,clinical score (breathing effort score) compared to pretreatment values,"RAO horses [1]; dexamethasone 0.066 mg/kg per os once daily, after 7 and 14 days",significantly reduced
same,all lung function variables compared to pretreatment values,"RAO horses [1]; dexamethasone 0.066 mg/kg per os once daily, after 14 days, p≤0.0001",significantly reduced
same,lymphocytes count,RAO horses [6]; 1st ciclesonide study,decreased
same,segmented neutrophil count,RAO horses [6]; 1st ciclesonide study,increased
same,lymphocytes count,RAO horses [6]; 2nd ciclesonide study,decreased
same,segmented neutrophil count,RAO horses [6]; 2nd ciclesonide study,increased
same,neutrophilia and lymphopenia,RAO horses [6]; after treatment with dexamethasone (1st and 2nd ciclesonide study),Neutrophilia and lymphopenia is observed
same,Lymphocytes,"RAO horses [6]; 1st ciclesonide study, D 0",2.1e+09 L⁻¹
same,Segmented neutrophils,"RAO horses [6]; 1st ciclesonide study, D 0",4.77e+09 L⁻¹
same,Lymphocytes,"RAO horses [6]; 1st ciclesonide study, D 14",1.71e+09 L⁻¹
same,Segmented neutrophils,"RAO horses [6]; 1st ciclesonide study, D 14",6.16e+09 L⁻¹
same,Lymphocytes,"RAO horses [6]; 1st ciclesonide study, D 21",1.76e+09 L⁻¹
same,Segmented neutrophils,"RAO horses [6]; 1st ciclesonide study, D 21",4.27e+09 L⁻¹
same,Lymphocytes,"RAO horses [6]; 2nd ciclesonide study, D 0",2.14e+09 L⁻¹
same,Segmented neutrophils,"RAO horses [6]; 2nd ciclesonide study, D 0",4.82e+09 L⁻¹
same,Lymphocytes,"RAO horses [6]; 2nd ciclesonide study, D 14",1.73e+09 L⁻¹
same,Segmented neutrophils,"RAO horses [6]; 2nd ciclesonide study, D 14",6.23e+09 L⁻¹
same,Lymphocytes,"RAO horses [6]; 2nd ciclesonide study, D 21",1.73e+09 L⁻¹
same,Segmented neutrophils,"RAO horses [6]; 2nd ciclesonide study, D 21",4.82e+09 L⁻¹
same,"all lung function variables (ΔPL, RL, EL) compared to pretreatment values",RAO horses [7],significantly reduced
